Test results published in patent US4845219A, “Nitrogen- and sulfur-containing lipid compounds their production and use” (Takeda Chemical Industries, Ltd., priority 1986, dated 1989).
Structures can show the parent of a compound that is named as a salt.

Columns and labels:
MM46 cells = experiment: Life-span prolongation of MM46-inoculated C3H/He mice (Test Example 2); assay type: in vivo; conditions: MM46 1×10^4 cells/mouse i.p.; for Life-Span Prolongation Ratio (T/C, %): 0.25 mg/mouse i.p. for consecutive 4 days from second day after inoculation, only mice of survival days less than 60 days, control = 100; for No. of survivors/No. of tested mice: 0.25 mg/mouse i.p. for consecutive 4 days, 60th day, control 0/5
Method: C3H/He mice (a group consisting of five mice) were inoculated intraperitoneally with 1×10^4 MM46 cells per mouse, and each mouse was intraperitoneally given 0.25 mg of drug for consecutive 4 days, starting from the second day after the inoculation. Shown in Table 2 are the life-span prolongation ratio ragarding the died mice in the group treated with drug against those in the control group not treated with drug (only related to mice of survival days less than 60 days) and the number of survived mice on the 60th day after the inoculation of MM46.

Sarcoma 180 cells = experiment: Life-span prolongation of Sarcoma 180-inoculated ICR mice (Test Example 1); assay type: in vivo; conditions: Sarcoma 180 1×10^5 cells/mouse i.p.; for Life-Span Prolongation Ratio (T/C, %): 0.33 mg/mouse i.p. three times (1 hour, 1 day, 2 days after inoculation), only mice of survival days less than 60 days, control = 100; for 60th day: No. of survivors/No. of tested mice: 0.33 mg/mouse i.p. three times, control 0/5
Method: ICR mice (a group consisting of five mice) were inoculated intraperitoneally with 1×10^5 Sarcoma 180 cells per mouse, and then given intraperitoneally 0.33 mg/mouse of the compound prepared in the present invention dissolved in physiological saline, three times in total, 1 hour, 1 day and 2 days after the inoculation. Also, the control compound [III] was given to mice under the same conditions. Shown in Table 1 are the life-span prolongation ratio against the control group not treated with drug (only related to mice of survival days less than 60 days) and the number of survived mice on the 60th day after the initiation of the test.

tumor cells = conditions: compound [III], literature; cited from earlier work
[1] = literature; cited from earlier work
platelets = conditions: literature; cited from earlier work
[2] = system: human myelogenic leukaemia cells HL-60; experiment: Proliferation inhibiting activity against HL-60 (Test Example 3); assay type: cell-based; conditions: HL-60 cells, read-out: Inhibitory concentration against HL-60 (IC50, μg/ml)
Method: Proliferation inhibiting activity (IC50) of the compound of the present invention againsts human myelogenic leukaemia cells HL-60 was measured according to the method of R. Gallo et al [Blood, vol.

[3] = system: platelet aggregation by PAF, washed PRP; experiment: PAF inhibiting activity in platelet aggregation (Test Example 4); assay type: cell-based; conditions: Oryctolagus cuniculus, PAF 3×10^-7 M, rabbit washed PRP, 37° C., relative to maximum aggregation of control PRP by PAF, read-out: Inhibiting Ratio; for inhibition at 30 µM: medicine concentration 3 × 10^-5 M; for inhibition at 3 µM: medicine concentration 3 × 10^-6 M
Method: Using a syringe containing 3.15% citric acid (1 part per 9 parts of blood) as a blood coagulation inhibitor, blood was taken from male rabbit. The blood was then centrifuged at 1000 rpm at room temperature for 10 minutes to obtain a platelet rich plasma (PRP). This PRP was further centrifuged at 1400 rpm for 15 minutes to obtain a platelet pellet. The pellet was suspended in Ca^++ -free Tyrode containing 0.25% gelatin to obtain washed PRP. This PRP (250 μl) was stirred at 37° C. for 2 minutes, to which was then added 25 μl of a 0.2-0.5 mM Ca^++ solution. After this mixture had been stirred for 30 seconds, a medicine to be tested was added thereto. After 2 minutes stirring, 3×10^-7 M of PAF was added to the mixture. Pellet aggregation was measured by means of a platelet aggregometer (manufactured by Rika Denki, Japan). The activity of the test samples was determined in terms of an inhibiting ratio relative to the maximum transmittance (maximum aggregation ratio) of control PRP by PAF.

Compound	Life-Span Prolongation Ratio (T/C, %) (MM46 cells) [%]	No. of survivors/No. of tested mice (MM46 cells)	Life-Span Prolongation Ratio (T/C, %) (Sarcoma 180 cells) [%]	60th day: No. of survivors/No. of tested mice (Sarcoma 180 cells)	anti-tumor activity (tumor cells)	hypotensive and other side-effect activity [1]	platelet activating / aggregating activity (platelets)	IC50 [2] [µg/mL]	inhibition at 30 µM [3] [%]	inhibition at 3 µM [3] [%]
CCCCCCCCCCCCCCCCCCOCC(COP(=O)([O-])OCC[N+](C)(C)C)OC (centres unmarked) [Compound [III], reference compound]	155	0/5	162	0/5	anti-tumor activity	hypotensive activity and local stimulating activity	platelet activating property	–	–	–
CCCCCCCCCCCCCCCCCCOCC(CS(=O)(=O)CCC[N+](C)(C)C)OC.CS(=O)(=O)[O-] (centres unmarked) [Example 30, 3-[(2-methoxy-3-octadecyloxypropyl)sulfonyl]propyltrimethylammonium mesylate]	225	4/5	350	0/5	–	–	–	1.25	–	–
CCCCCCCCCCCCCCCCCCOCC(CS(=O)(=O)CCCCCC[N+](C)(C)C)OC.CS(=O)(=O)[O-] (centres unmarked) [Example 31, 6-[(2-methoxy-3-octadecyloxypropyl)sulfonyl]hexyltrimethylammonium mesylate]	–	–	273	0/5	–	–	–	5	100	100
CCCCCCCCCCCCCCCCCCOCC(CCS(=O)(=O)CCC[N+](C)(C)C)OC.CS(=O)(=O)[O-] (centres unmarked) [Example 36, 3-[(3-methoxy-4-octadecyloxybutyl)sulfonyl]propyltrimethylammonium mesylate]	–	–	242	1/5	–	–	–	2.5	–	–
CCCCCCCCCCCCCCCCCCOCC(CC[S+]([O-])CCC[N+](C)(C)C)OC.CS(=O)(=O)[O-] (centres unmarked) [Example 37, 3-[(3-methoxy-4-octadecyloxybutyl)sulfinyl]propyltrimethylammonium mesylate]	–	–	326	0/5	–	–	–	2.5	–	–
CCCCCCCCCCCCCCCCCCOCC(CSCCC[N+](C)(C)C)OC.CS(=O)(=O)[O-] (centres unmarked) [Example 38, 3-[(2-methoxy-3-octadecyloxypropyl)thio]propyltrimethylammonium mesylate]	–	–	–	–	–	–	–	5	–	–
CCCCCCCCCCCCCCCCCCOCC(CS(=O)(=O)CCC[n+]1ccccc1)OC (centres unmarked) [Example 45, N[3-((2-Methoxy-3-octadecyloxypropyl)sulfony)propyl]pyridinium mesylate]	–	–	–	–	–	–	–	1.25	100	82
CCCCCCCCCCCCCCCCCCNC(=O)OCC(CS(=O)(=O)CCC[n+]1ccccc1)OC (centres unmarked) [Example 46, N-[3-((2-Methoxy-3-octadecylcarbamoyloxypropyl)sulfonyl)propyl]-pyridinium mesylate]	–	–	–	–	–	–	–	–	100	100
CCCCCCCCCCCCCCCCCCOCC(CCS(=O)(=O)CCC[n+]1ccccc1)OC.CS(=O)(=O)[O-] (centres unmarked) [Example 47, N-[3-((3-Methoxy-4-octadecyloxybutyl)sulfonyl)propyl]pyridinium mesylate]	–	–	–	–	–	–	–	1.25	100	73
CCCCCCCCCCCCCCCCCCOCC(CCS(=O)(=O)CCC[n+]1ccsc1)OC.CS(=O)(=O)[O-] (centres unmarked) [Example 48, N-[3-((3-Methoxy-4-octadecyloxybutyl)sulfonyl)propyl]thiazolium mesylate]	–	–	–	–	–	–	–	2.5	100	65
